Measured values published in PubChem BioAssay (NCI).
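Method: 48-hour compound exposure of cells in 96-well plates, five concentrations, linear interpolation of endpoints. At the GI50, growth is halved. The concentration for full growth arrest is given as TGI.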

Key:
Assay in all cases: NCI tumour cell line growth inhibition, 48 h
OVCAR-4 ovarian = test system: OVCAR-4 ovarian
HCT-116 colon = test system: HCT-116 colon
NCI-H522 lung = test system: NCI-H522 lung
K-562 leukemia = test system: K-562 leukemia
COLO 205 colon = test system: COLO 205 colon
SF-268 CNS = test system: SF-268 CNS
HT29 colon = test system: HT29 colon
UACC-62 melanoma = test system: UACC-62 melanoma
HCT-15 colon = test system: HCT-15 colon

SMILES	TGI (OVCAR-4 ovarian) [µM]	TGI (HCT-116 colon) [µM]	TGI (NCI-H522 lung) [µM]	TGI (K-562 leukemia) [µM]	TGI (COLO 205 colon) [µM]	TGI (SF-268 CNS) [µM]	TGI (HT29 colon) [µM]	TGI (UACC-62 melanoma) [µM]	TGI (HCT-15 colon) [µM]	GI50 (HCT-116 colon) [µM]	GI50 (NCI-H522 lung) [µM]	GI50 (K-562 leukemia) [µM]	GI50 (COLO 205 colon) [µM]	GI50 (SF-268 CNS) [µM]	GI50 (HT29 colon) [µM]	GI50 (UACC-62 melanoma) [µM]	GI50 (HCT-15 colon) [µM]
CC(=O)OC1C(C)OC(OC2C[C@](O)(C(C)=O)Cc3c(O)c4c(c(O)c32)C(=O)c2ccccc2C4=O)C(F)C1OC(C)=O (stereo partly drawn)	41.8	2.84	4.29	> 100	> 100	24.6	> 100	2.81	6.34								
N=c1sc(N2CCOCC2)nn1CC(=O)c1ccccc1	> 100	> 100	> 100	> 100	> 100	> 100	> 100	> 100	> 100								
O=C1c2sccc2C(=O)c2c(CO)csc21	9.46	9.47	13.6	> 100	12.2	30.7	9.55	5.67	11.2								
CC(=O)Oc1c(OC(C)C)cc(=O)n2ccsc12	> 100	> 100	> 100	> 100	> 100	> 100	> 100	> 100	> 100								
O=C(Cn1c(-c2ccccc2)cc2ccccc21)N1CCOCC1	> 100	> 100	> 100	> 100	> 100	> 100	> 100	> 100	> 100								
O=C(C[N+]1(c2ccccc2)CCOCC1)c1ccccc1	> 100	> 100	> 100	> 100		> 100	> 100	> 100	> 100								
COc1cc(CC2C(=O)OCC2Cc2ccc(OC)c(OC)c2)ccc1O (stereo not drawn)	> 100	> 100	> 100	> 100	> 100	> 100	> 100	> 100	> 100								
N/N=C(\N)SCc1ccc(N=C=S)cc1	> 100	> 100	> 100	> 100	> 100	> 100	> 100	> 100	> 100								
O=[N+]([O-])c1cccc2c1[nH]c1c(-c3ccccc3)nccc12	> 33.2	11.2	4.27	> 100	4.23	> 100	10.4	9.04	> 38.5								
Nc1nc(Nc2cc(F)c(Cl)c(F)c2)cc(=O)[nH]1	> 100	> 100	> 100		> 100	> 100	> 100	> 100	> 100								
COc1ccc(-c2cc(-c3ccc(Nc4ccnc5cc(C(F)(F)F)ccc45)cc3)nc(N)c2C#N)c2ccccc12	> 100	> 100			> 100	> 100		> 100	> 100								
CCCCN1/C(=N/Nc2n[nH]c(=O)c3ccccc23)SCC1c1ccc(Cl)cc1 (stereo not drawn)	> 100	44.8	37.1	> 100	> 100	43.9	96.1	20.7	28.7								
CSC(=NCCCN=C(NS(=O)(=O)c1ccc(Cl)cc1)SC)NS(=O)(=O)c1ccc(Cl)cc1	> 100	> 100		> 100	51.6	> 100	> 100	> 100	> 100								
CC1SCCc2nc3ccccc3n21 (stereo not drawn)	> 100	> 100		> 100	> 100	> 100	> 100	> 100	> 100								
Cc1cc(N(CCCl)CCCl)ccc1/C=N\NC(=O)c1cccnc1		> 100	32.3	> 100	85.3	> 100	> 100	25.2	> 100	26.9	15.2	20.1	19.1	25.1	30.3	4.51	21.9
Nc1nc(N)c2ncn(Cc3ccccc3)c2n1	> 100	> 100	> 100		> 100	> 100	> 100	> 100	> 100								
C[C@@H](c1ccccc1)N(CC#N)[C@H]1CCC[C@]1(O)/C=C/c1ccc2c(c1)OCO2	> 25	> 25	> 25	> 25	> 25	> 25	> 25	7.67	> 25								
CO[C@@H](c1ccccc1)[C@H](O)[C@@](O)(c1ccccc1)P(=O)(OC)OC		> 100	> 100	> 100	> 100	> 100	> 100	> 100	> 100								
COC(=O)C1CCC(=S)N1C(C)=O (stereo not drawn)	> 100	> 100	> 100	> 100	> 100	> 100	> 100	> 100	> 100								
O=C(NCc1ccc(Cl)c(Cl)c1)c1nc2ccccc2nc1NCc1ccc(Cl)c(Cl)c1		> 100	> 100	> 100	> 100	> 100	> 100	> 100	> 100								
O=C(Nc1nc2ccc([N+](=O)[O-])cc2s1)c1cc([N+](=O)[O-])ccc1Cl	> 100	5.33	4.39		3.65	11.7	6.03		8.3								
CCOC(=O)N/N=C(/N)Cc1ccc(Cl)cc1	> 100	> 100	> 100	> 100	> 100	> 100	> 100	> 100	> 100								
CCOC(=O)c1c(SCCN(CC)CC)n(-c2ccccc2)c(=S)n(-c2ccccc2)c1=O	25.5	8.13	3.67	4.32	6.2	9.9	12.6	9.1	7.28								
CC1=C(C(=O)OC(C)(C)C)C(c2ccc([N+](=O)[O-])cc2)C(C(=O)OC(C)(C)C)=C(C)N1	37.4	36.4	36.4	54	39.8	56.4	48.8	34.8	62.5								
COc1ccc(-c2cc(=O)c3cc(OC)c(OC)cc3[nH]2)cc1OC	> 100	> 100	> 100	> 100	> 100	> 100	> 100	> 100	> 100								

SMILES	TGI (OVCAR-4 ovarian) [µM]	TGI (HCT-116 colon) [µM]	TGI (NCI-H522 lung) [µM]	TGI (K-562 leukemia) [µM]	TGI (COLO 205 colon) [µM]	TGI (SF-268 CNS) [µM]	TGI (HT29 colon) [µM]	TGI (UACC-62 melanoma) [µM]	TGI (HCT-15 colon) [µM]	GI50 (HCT-116 colon) [µM]	GI50 (NCI-H522 lung) [µM]	GI50 (K-562 leukemia) [µM]	GI50 (COLO 205 colon) [µM]	GI50 (SF-268 CNS) [µM]	GI50 (HT29 colon) [µM]	GI50 (UACC-62 melanoma) [µM]	GI50 (HCT-15 colon) [µM]
Cc1cc(NS(=O)(=O)c2ccc(NC(NC(=O)OC(C)C)(C(F)(F)F)C(F)(F)F)cc2)nc(C)n1	> 100	> 100		> 100	> 100	> 100	> 100	> 100	> 100								
N#Cc1c(N)n(-c2nc3ccccc3s2)c(=O)c2cc([N+](=O)[O-])ccc12	> 100	> 41.9	25.6	38.6		> 49.6	14.3	66.8	19.4								
Cc1nnc(N)s/c1=N/O	> 100	> 100	> 100	> 100	> 100	> 100	> 100	> 100	> 100								
CNc1nc(OC)c2c(n1)[n+](C)cn2C		> 100	> 100	> 100	> 100	> 100	> 100	> 100	> 100								
CC(=O)OC/C=C/Cn1nc(Br)c(=O)[nH]c1=O	> 100	> 100	> 100	> 100	> 100	> 100	> 100	> 100	> 100								
Clc1cc2ncn(C3CCCO3)c2cc1Cl (stereo not drawn)	> 100	> 100	> 100	> 100	> 100	> 100	> 100	> 100	> 100								
CCN(CC)CCCNc1nnc(C)c2[nH]c3ccccc3c12		69.4	21.3	> 100	13.1	34.7	56.1	27.9	> 100								
COc1c(-c2nc3nc(N4CCN(C)CC4)ccc3[nH]2)cc(OC)c2c1nc(CCl)n2C	44.3	> 100	25.5	> 100	31.1	55.7	32.9	23.1	90.6								
CC(=O)Oc1cc(OC(C)=O)c2c(c1C)CC[C@@H]1[C@@H]2CC[C@]2(C)[C@@H](OC(C)=O)CC[C@@H]12		29.2	32	89.2		39.3	29.8	34.7	33.3								
CCCCCCCCCCCCCCCC(=O)OCC(COP(=O)(O)OCCNC(=O)CCSSc1ccccn1)OC(=O)CCCCCCCCCCCCCCC (stereo not drawn)	> 100	> 100	> 100	> 100	> 100	> 100	> 100	> 100	> 100								
CC(C)(C)OC(=O)NCCCCC1NC(=O)[C@@H]2Cc3c([nH]c4ccccc34)C(c3ccccc3)N2C1=O (stereo partly drawn)	> 100	> 100	> 100	> 100	46.9	> 100	87.5	95.6	> 100								
CC(C)[C@H](NC(=O)OCc1ccccc1)C(=O)N[C@H](/C=C/C(=O)OC(C)(C)C)CO	> 100	> 100	> 100		> 100	> 100	> 100	> 100	> 100								
CCOP(=O)(OCC)/C(C#N)=C(\C)c1ccco1	> 10	> 10		> 10	> 10	> 10	> 10	> 10	> 10								
CC(=O)CC(=O)N1CCOC1=O	> 10	> 10		> 10	> 10	> 10	> 10	> 10	> 10								
O=CC12CCCN1CCC2	> 100	> 100	> 100	> 100	> 100		> 100	> 100	> 100								
CN(C)c1ccc(/C=C2\CCCCCC2=O)cc1		> 100		> 100	> 100	> 100	> 100	> 100									
COc1ccc(NC(=S)Nc2cccc(C)n2)cc1	> 100	> 100		> 100	> 100	> 100	> 100	> 100	> 100								
CCOC(=O)C1(NC(=O)OC(C)(C)C)CCc2[nH]oc(=O)c2C1 (stereo not drawn)	> 100	> 100	> 100	> 100	> 100		> 100	> 100	> 100								
CCCCSC1=N/C(=C\c2ccccc2O)C(Cl)=N1	> 100	> 100	> 100		> 100	> 100	> 100	> 100	> 100								
Cc1ccc(C(=O)C2CC3(CCC2(O)c2ccc(C)cc2)CC(=O)Nc2ccccc2C3=O)cc1 (stereo not drawn)		> 100			> 100	> 100	> 100	> 100	> 100								
COc1ccc(N=C(SSC(=Nc2ccc(OC)cc2)c2ccc([N+](=O)[O-])o2)c2ccc([N+](=O)[O-])o2)cc1	2.92	3.49	0.953	> 25.3		5.4	5.53	3.16	2.03								
CCc1n[nH]c(=O)n1-c1ccncc1	> 100	> 100	> 100	> 100	> 100	> 100	> 100		> 100								
C/C(=C\CNc1ncnc2c1ncn2CCC#N)CO	> 100	> 100	> 100	> 100	> 100	> 100	> 100	> 100									
COc1ccc2c(C=O)c3n(c(=O)c2c1OC)CCc1cc2c(cc1-3)OCO2	> 100	> 100	> 100		82	> 100	> 100	> 100	> 100								
